Assay results taken from patent US20260297080A1, “BICYCLIC COMPOUNDS AS CDK INHIBITORS” (BeOne Medicines I GmbH, priority 2022, published 2026).

Tests used:
CDK2/Cyclin E1 = CDK2/Cyclin E1 (Homo sapiens, UniProt P24941); experiment: CDK2/Cyclin E1 Biochemical Assay (TR-FRET), 0.060 mM ATP; details: 0.15 μM Rb (Ser780)-biotin substrate, pH7.0, 60 min preincubation, 120 min reaction, room temperature
Procedure, shortened: (§1)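 Percent inhibition was derived from the 665 nm/620 nm TR-FRET ratio after a 120-minute room-temperature reaction on 0.15 μM Rb (Ser780)-biotin, preceded by 60-minute enzyme–compound preincubation. IC50 came from four-parameter logistic fitting.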

CDK1/Cyclin B1 = CDK1/Cyclin B1 (Homo sapiens, UniProt P06493); experiment: CDK1/Cyclin B1 Biochemical Assay (TR-FRET), 0.015 mM ATP; details: 0.15 μM Rb (Ser780)-biotin substrate, pH7.0, 60 min preincubation, 120 min reaction, room temperature
Procedure, shortened: as §1

Sequence of CDK1/Cyclin B1 (P06493 whole entry): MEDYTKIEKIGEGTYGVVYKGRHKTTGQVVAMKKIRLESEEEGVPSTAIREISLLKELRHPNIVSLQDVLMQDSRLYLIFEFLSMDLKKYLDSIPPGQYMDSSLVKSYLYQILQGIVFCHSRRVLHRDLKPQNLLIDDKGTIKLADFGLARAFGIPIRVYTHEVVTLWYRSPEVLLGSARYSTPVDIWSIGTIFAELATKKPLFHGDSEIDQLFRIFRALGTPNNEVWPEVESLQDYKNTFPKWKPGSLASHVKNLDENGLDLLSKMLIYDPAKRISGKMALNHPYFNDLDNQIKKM
Sequence of CDK1/Cyclin B1 (P14635 whole entry partner): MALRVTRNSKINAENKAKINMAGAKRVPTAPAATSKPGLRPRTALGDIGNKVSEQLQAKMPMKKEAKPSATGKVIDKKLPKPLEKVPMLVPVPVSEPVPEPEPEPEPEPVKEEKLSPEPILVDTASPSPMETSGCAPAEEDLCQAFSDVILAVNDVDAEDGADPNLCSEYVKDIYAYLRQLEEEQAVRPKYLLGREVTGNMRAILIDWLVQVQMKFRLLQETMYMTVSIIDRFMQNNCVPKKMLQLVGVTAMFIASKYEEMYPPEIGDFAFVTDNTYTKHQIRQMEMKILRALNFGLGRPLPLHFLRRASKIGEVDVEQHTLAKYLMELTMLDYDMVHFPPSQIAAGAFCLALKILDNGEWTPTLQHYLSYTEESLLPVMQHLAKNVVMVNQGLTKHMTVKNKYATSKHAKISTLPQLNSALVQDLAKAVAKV

Row | IC50 (CDK2/Cyclin E1) [µM] | IC50 (CDK1/Cyclin B1) [µM] | Structure (SMILES)
1 | 0.0039 | 0.191 | CC(C)NC(=O)O[C@H]1CC[C@@H](c2cc(Nc3ccc4c(c3)C(C)S(=O)(=O)N4)n[nH]2)C1 (single isomer, unassigned) [Example 384b, cis-3-(3-((3-methyl-2,2-dioxido-1,3-dihydrobenzo[c]isothiazol-5-yl)amino)-1H-pyrazol-5-yl)cyclopentyl isopropylcarbamate]
2 | 0.0059 | 0.27 | CCCNC(=O)O[C@H]1CC[C@@H](c2cc(Nc3ccc4c(c3F)CS(=O)(=O)N4C3COC3)n[nH]2)C1 (single isomer, unassigned) [Example 260a, cis-3-(3-((4-fluoro-1-(oxetan-3-yl)-2,2-dioxido-1,3-dihydrobenzo[c]isothiazol-5-yl)amino)-1H-pyrazol-5-yl)cyclopentyl propylcarbamate]
3 | 0.0013 | 0.029 | CC1NS(=O)(=O)c2ccc(Nc3cc([C@@H]4CC[C@H](OC(=O)NC5(C)CC5)C4)[nH]n3)cc21 (single isomer, unassigned) [Example 322c, cis-3-(3-((3-methyl-1,1-dioxido-2,3-dihydrobenzo[d]isothiazol-5-yl)amino)-1H-pyrazol-5-yl)cyclopentyl(1-methylcyclopropyl)carbamate]
4 | 0.0023 | 0.068 | CC(C)NC(=O)O[C@H]1CC[C@@H](c2cc(Nc3ccc4c(c3)CCS(=O)(=O)N4)n[nH]2)C1 (single isomer, unassigned) [Example 246b, cis-3-(3-((2,2-dioxido-3,4-dihydro-1H-benzo[c][1,2]thiazin-6-yl)amino)-1H-pyrazol-5-yl)cyclopentyl isopropylcarbamate]
5 | 0.0013 | 0.065 | CC1(NC(=O)O[C@H]2CC[C@@H](c3cc(Nc4ccc5c(c4F)CS(=O)(=O)N5CC(F)(F)F)n[nH]3)C2)CC1 (single isomer, unassigned) [Example 264a, cis-3-(3-((4-fluoro-2,2-dioxido-1-(2,2,2-trifluoroethyl)-1,3-dihydrobenzo[c]isothiazol-5-yl)amino)-1H-pyrazol-5-yl)cyclopentyl(1-methylcyclopropyl)carbamate]
6 | 0.0007 | 0.017 | CN1c2ccc(Nc3cc([C@H]4CC[C@@H](OC(=O)NC(C)(C)C)C4)[nH]n3)cc2CS1(=O)=O [Example 391a]

The next lines start with the compound.

Row | Structure (SMILES) | IC50 (CDK2/Cyclin E1) [µM] | IC50 (CDK1/Cyclin B1) [µM]
7 | O=C(NCC1CC1)O[C@H]1CC[C@@H](c2cc(Nc3ccc4c(c3F)CNS4(=O)=O)n[nH]2)C1 (relative stereo) [Example 414, cis-3-(3-((4-fluoro-1,1-dioxido-2,3-dihydrobenzo[d]isothiazol-5-yl)amino)-1H-pyrazol-5-yl)cyclopentyl(cyclopropylmethyl)carbamate] | 0.0073 | 0.232
8 | COc1c(Nc2cc([C@@H]3CC[C@H](OC(=O)NC(C)C)C3)[nH]n2)ccc2c1C(C)(C)NS2(=O)=O (relative stereo) [Example 24, cis-3-(3-((4-methoxy-3,3-dimethyl-1,1-dioxido-2,3-dihydrobenzo[d]isothiazol-5-yl)amino)-1H-pyrazol-5-yl)cyclopentyl isopropylcarbamate] | 0.887 | 9.96
9 | CC[C@H](C)NC(=O)O[C@H]1CC[C@@H](c2cc(Nc3ccc4c(c3F)CN(C3CC3)S4(=O)=O)n[nH]2)C1 (racemic) [Example 117, cis-3-(3-((2-cyclopropyl-4-fluoro-1,1-dioxido-2,3-dihydrobenzo[d]isothiazol-5-yl)amino)-1H-pyrazol-5-yl)cyclopentyl((S)-sec-butyl)carbamate] | 0.0096 | 0.431
10 | CC(C)NC(=O)O[C@H]1CC[C@@H](c2cc(Nc3ccc4c(n3)CNS4(=O)=O)n[nH]2)C1 (relative stereo) [Example 33, cis-3-(3-((1,1-dioxido-2,3-dihydroisothiazolo[4,5-b]pyridin-5-yl)amino)-1H-pyrazol-5-yl)cyclopentyl isopropylcarbamate] | 0.0018 | 0.038
11 | CC(C)NC(=O)O[C@H]1CC[C@@H](c2cc(Nc3ccc4c(c3F)CN(C3CN(C)C3)S4(=O)=O)n[nH]2)C1 (relative stereo) [Example 91, cis-3-(3-((4-fluoro-2-(1-methylazetidin-3-yl)-1,1-dioxido-2,3-dihydrobenzo[d]isothiazol-5-yl)amino)-1H-pyrazol-5-yl)cyclopentyl isopropylcarbamate] | 0.024 | 0.945
12 | Cc1cc(Nc2cc([C@@H]3CC[C@H](OC(=O)NC(C)C)C3)[nH]n2)cc2c1S(=O)(=O)NC2 (relative stereo) [Example 26, cis-3-(3-((7-methyl-1,1-dioxido-2,3-dihydrobenzo[d]isothiazol-5-yl)amino)-1H-pyrazol-5-yl)cyclopentyl isopropylcarbamate] | 0.002 | 0.06
13 | CC(NC(=O)O[C@H]1CC[C@@H](c2cc(Nc3ccc4c(c3F)CNS4(=O)=O)n[nH]2)C1)C1CC1 (relative stereo) [Example 156, cis-3-(3-((4-fluoro-1,1-dioxido-2,3-dihydrobenzo[d]isothiazol-5-yl)amino)-1H-pyrazol-5-yl)cyclopentyl(1-cyclopropylethyl)carbamate] | 0.0017 | 0.076
14 | CC(C)NC(=O)O[C@H]1CC[C@@H](c2cc(Nc3ccc4c(c3F)CN(C3CCN(Cc5ccccc5)CC3)S4(=O)=O)n[nH]2)C1 (relative stereo) [Example 63, cis-3-(3-((2-(1-benzylpiperidin-4-yl)-4-fluoro-1,1-dioxido-2,3-dihydrobenzo[d]isothiazol-5-yl)amino)-1H-pyrazol-5-yl)cyclopentyl isopropylcarbamate] | 0.023 | 1.11
15 | [2H]C([2H])([2H])N1Cc2c(ccc(Nc3cc([C@@H]4CC[C@H](OC(=O)NC(C)C)C4)[nH]n3)c2F)S1(=O)=O (single isomer, unassigned) [Example 129b, cis-3-(3-((4-fluoro-2-(methyl-d3)-1,1-dioxido-2,3-dihydrobenzo[d]isothiazol-5-yl)amino)-1H-pyrazol-5-yl)cyclopentyl isopropylcarbamate] | 0.0026 | 0.185
16 | COc1cc2c(cc1Nc1cc([C@@H]3CC[C@H](OC(=O)NC(C)C)C3)[nH]n1)S(=O)(=O)NC2 (relative stereo) [Example 182, cis-3-(3-((5-methoxy-1,1-dioxido-2,3-dihydrobenzo[d]isothiazol-6-yl)amino)-1H-pyrazol-5-yl)cyclopentyl isopropylcarbamate] | 0.279 | 5.58
17 | CC(C)NC(=O)O[C@H]1CC[C@@H](c2cc(Nc3ccc4c(c3)CS(=O)(=O)N4CC3COC3)n[nH]2)C1 (relative stereo) [Example 210, cis-3-(3-((1-(oxetan-3-ylmethyl)-2,2-dioxido-1,3-dihydrobenzo[c]isothiazol-5-yl)amino)-1H-pyrazol-5-yl)cyclopentyl isopropylcarbamate] | 0.0021 | 0.04
18 | CC(C)NC(=O)O[C@H]1CC[C@@H](c2cc(Nc3cc(Cl)c4c(c3)S(=O)(=O)NC4)n[nH]2)C1 (relative stereo) [Example 184, cis-3-(3-((4-chloro-1,1-dioxido-2,3-dihydrobenzo[d]isothiazol-6-yl)amino)-1H-pyrazol-5-yl)cyclopentyl isopropylcarbamate] | 0.0015 | 0.0041
19 | CC1(NC(=O)O[C@H]2CC[C@@H](c3cc(Nc4cc5c(cc4F)NS(=O)(=O)C5)n[nH]3)C2)CC1 (relative stereo) [Example 295, cis-3-(3-((6-fluoro-2,2-dioxido-1,3-dihydrobenzo[c]isothiazol-5-yl)amino)-1H-pyrazol-5-yl)cyclopentyl(1-methylcyclopropyl)carbamate] | 0.023 | 0.426
20 | CC(C)NC(=O)O[C@H]1CC[C@@H](c2cc(Nc3ccc4c(c3F)CN(CC3CN(S(C)(=O)=O)C3)S4(=O)=O)n[nH]2)C1 (relative stereo) [Example 326, cis-3-(3-((4-fluoro-2-((1-(methylsulfonyl)azetidin-3-yl)methyl)-1,1-dioxido-2,3-dihydrobenzo[d]isothiazol-5-yl)amino)-1H-pyrazol-5-yl)cyclopentyl isopropylcarbamate] | 0.0066 | 0.29
21 | CC(C)NC(=O)O[C@H]1CC[C@@H](c2cc(Nc3cc4c(cc3F)S(=O)(=O)NC4)n[nH]2)C1 (single isomer, unassigned) [Example 12a, cis-3-(3-((6-fluoro-1,1-dioxido-2,3-dihydrobenzo[d]isothiazol-5-yl)amino)-1H-pyrazol-5-yl)cyclopentyl isopropylcarbamate] | 0.01 | 0.921
22 | CC(C)NC(=O)O[C@H]1CC[C@@H](c2cc(Nc3ccc4c(c3F)CN(C3CCN(C)C(=O)C3)S4(=O)=O)n[nH]2)C1 (relative stereo) [Example 100, cis-3-(3-((4-fluoro-2-(1-methyl-2-oxopiperidin-4-yl)-1,1-dioxido-2,3-dihydrobenzo[d]isothiazol-5-yl)amino)-1H-pyrazol-5-yl)cyclopentyl isopropylcarbamate] | 0.0052 | 0.236
23 | [2H]C([2H])([2H])C1c2cc(Nc3cc([C@@H]4CC[C@H](OC(=O)NC5(C)CC5)C4)[nH]n3)cc(F)c2N(C([2H])([2H])[2H])S1(=O)=O (relative stereo) [Example 287, cis-3-(3-((7-fluoro-1,3-bis(methyl-d3)-2,2-dioxido-1,3-dihydrobenzo[c]isothiazol-5-yl)amino)-1H-pyrazol-5-yl)cyclopentyl(1-methylcyclopropyl)carbamate] | 0.0077 | 0.077
24 | COCC(C)(C)NC(=O)O[C@H]1CC[C@@H](c2cc(Nc3ccc4c(c3F)CS(=O)(=O)N4CCO)n[nH]2)C1 (relative stereo) [Example 394, cis-3-(3-((4-fluoro-1-(2-hydroxyethyl)-2,2-dioxido-1,3-dihydrobenzo[c]isothiazol-5-yl)amino)-1H-pyrazol-5-yl)cyclopentyl(1-methoxy-2-methylpropan-2-yl)carbamate] | 0.0011 | 0.045
